In article PMC9697446 (International Journal of Molecular Sciences, 2022):
Like-named read-outs stand apart in the source and are kept apart here.

How the values were obtained:
EeAChE PAS = molecular target: T1, EeAChE PAS (Electrophorus electricus, UniProt O42275); experiment: biochemical; type: binding; conditions: for inhibition at 3 µM: read-out: PI Displacement, 3 µM; for inhibition at 20 µM: read-out: PI Displacement, 20 µM
T1 construct: purchased Sigma-Aldrich type VI-S
Description: PIand donepezil were purchased from Sigma-Aldrich. […] As the source of the enzyme, electric eel (Elecrophorus electricus) AChE (EeAChE, type VI-S, lyophilized powder, Sigma-Aldrich, Saint Louis, MO, USA) was used. The applicability of this enzyme was shown earlier
To determine the percentage of displacement of PI from the EeAChE PAS, EeAChE (with a final concentration of 7 μM) was incubated with the test compound at a concentration of 3 and 20 μM in 1 mM Tris-HCl buffer pH 8.0, 25 °C for 15 min. Next, PIsolution (with a final concentration of 8 μM) was added, the samples were incubated for 15 min, and the fluorescence spectrum (530 nm (exc.) and 600 nm (emiss.)) was taken. Donepezil and decamethonium were used as reference compounds. The blank contained PI of the same concentration in 1 mM Tris-HCl buffer pH 8.0. The measurements were carried out in triplicate on a FLUOStar Optima microplate reader).
The percentage of displacement of PIfrom the peripheral anionic site of AChE was calculated using the following formula:% Displacement = 100 − (IFAChE+Propidium+inhibitor/IFAChE+Propidium) × 100,(1) where IFAChE+Propidium is the fluorescence intensity of the propidium associated with AChE in the absence of the test compound (taken as 100%) and IFAChE+Propidium+inhibitor is the fluorescence intensity of the propidium associated with AChE in the presence of the test compound.

[1] = test system: isolated rat liver mitochondria; experiment: Mitochondrial membrane potential and calcium-induced depolarization (safranine O); type: biochemical; conditions: for Effect on calcium-induced mitochondrial depolarization at 30 μM: 12.5 µM CaCl2; for ΔΨm, CI (g/m) / ΔΨm, CII (s/r): depolarization after 10-min incubation with 30 µM compound, mean ± SD; for ΔΨm, CI (g/m): complex I substrates (glutamate, malate); for ΔΨm, CII (s/r): complex II substrate (succinate) in the presence of rotenone
Description: The primary screening of new compounds to determine their effect on the mitochondrial membrane potential formed due to respiratory chain (RC) activity after additions of RC substrates was performed on isolated rat liver mitochondria. It can be used to estimate the probability of the potential toxicity of these compounds. Furthermore, the influence of the compounds on the calcium-dependent depolarization of isolated rat liver mitochondria in this assay made it possible to evaluate the effect on the mitochondrial permeability transition.
Rat liver mitochondria were isolated by conventional differential centrifugation from the livers of adult Wistar strain rats that fasted overnight, pH 7.6 [83, 84]. The mitochondrial protein concentration was determined using a biuret procedure with bovine serum albumin as the standard.
Safranine O (10 µM) was used as a membrane potential probe. Fluorescence intensity at 580 nm (excitation at 520 nm) was measured with a Wallac Victor 3 1420 Multilabel Counter (Perkin Elmer, Turku, Finland). The mitochondrial protein concentration was 0.2 mg/mL. The medium for measurements contained 75 mM sucrose, 225 mM mannitol, 10 mM K-HEPES (pH 7.4), 0.02 mM EGTA, and 1 mM KH2PO4. After a 5-min incubation, 5 mM glutamate/malate or 5 mM succinate in the presence of 0.5 µM rotenone were added to produce the mitochondrial potential. Then, the compounds (30 µM) or the same volume of the vehicle (DMSO) were injected into the mitochondrial suspension. After 15–20 min, 12.5 µM CaCl2 was added to each sample to induce the depolarization of mitochondria, and after 5 min, 0.5 µM CCCP was added for maximum depolarization of the mitochondria. The level of depolarization (ΔΨm) was calculated using the fluorescence value after 10-min incubation with 30 µM of compounds (or vehicle) normalized between the fluorescence measurements after substrate and CCCP addition, where fluorescence intensity at 580 nm was 100% after substrate addition and was 0% after CCCP addition.

human erythrocyte AChE = molecular target: T2, human erythrocyte AChE (Homo sapiens, UniProt P22303); experiment: biochemical; conditions: IC50 ± SEM, n = 3
T2 construct: The esterase profile was estimated using the human erythrocyteAChE; purchased Sigma-Aldrich; host or cells: human erythrocytes
Description: (§1) The esterase profile was estimated using the human erythrocyteAChE, the equine serum BChE, and the porcine liver CES.
(§2) Human erythrocyte AChE, equine serum BChE, porcine liver CES, acetylthiocholine iodide (ATCh), butyrylthiocholine iodide (BTCh), 5,5′-dithio-bis-(2-nitrobenzoic acid) (DTNB), 4-nitrophenol acetate (4-NPA), and BNPP were purchased from Sigma-Aldrich (St. Louis, MO, USA).
(§3) AChE and BChE activities were measured via the Ellman method. The assay solution consisted of 0.1 M K/Na phosphate buffer pH 7.5, 25 °C with the addition of 0.33 mM DTNB, 0.02 unit/mL of AChE or BChE and 1 mM of substrate (ATCh or BTCh, respectively). The assays were carried out with a reagent blank containing all components (except AChE orBChE) in order to account for the non-enzymatic hydrolysis of the substrate. In addition, an enzyme blank was included that contained all components except substrate to account for non-substrate sulfhydryl groups.
(§4) The test compounds were dissolved in DMSO, and the incubation mixture contained 2% (v/v) of the solvent. Enzyme inhibition was first assessed at a single concentration of 20 µM for each compound after a 5 min incubation at 25 °C in three separate experiments. […] The test compounds were added to the assay solution and preincubated at 25 °C with the enzymes for 5 min, followed by the addition of substrate. A parallel control was made for the assay solution with no inhibitor. Measurements were performed with a FLUOStar Optima microplate reader (BMG Labtech, Ortenberg, Germany). Each experiment was performed in triplicate. The results were expressed as the mean ± SEM. The reaction rates in the presence and absence of the inhibitor were compared, and the percent of residual enzyme activity due to the presence of test compounds was calculated.

equine serum BChE = molecular target: T3, equine serum BChE (Equus caballus, UniProt P81908); experiment: biochemical; conditions: n = 3; for IC50: IC50 ± SEM
T3 construct: the equine serum BChE, and the porcine liver CES; purchased Sigma-Aldrich; host or cells: equine serum
Description: as §1, §2, §3, §4

porcine liver CES = experiment: CES inhibition (4-nitrophenyl acetate hydrolysis); type: biochemical; conditions: ± SEM, n = 3;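 also: values are percent inhibition of CES activity not residual activity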
Description: as §1, §2
The assay solution consisted of 0.1 M K/Na phosphate buffer pH 8.0, 25 °C, with the addition of 1 mM 4-nitrophenyl acetate and 0.02 unit/mL of CES. The assays were carried out with a blank containing all components, except CES.
as §4

[2] = compound 3 µM, EeAChE 7 µM, PI 8 µM, means ± SEM (n = 3)
[3] = compound 20 µM, EeAChE 7 µM, PI 8 µM, means ± SEM (n = 3)

T3 sequence (P81908 whole entry): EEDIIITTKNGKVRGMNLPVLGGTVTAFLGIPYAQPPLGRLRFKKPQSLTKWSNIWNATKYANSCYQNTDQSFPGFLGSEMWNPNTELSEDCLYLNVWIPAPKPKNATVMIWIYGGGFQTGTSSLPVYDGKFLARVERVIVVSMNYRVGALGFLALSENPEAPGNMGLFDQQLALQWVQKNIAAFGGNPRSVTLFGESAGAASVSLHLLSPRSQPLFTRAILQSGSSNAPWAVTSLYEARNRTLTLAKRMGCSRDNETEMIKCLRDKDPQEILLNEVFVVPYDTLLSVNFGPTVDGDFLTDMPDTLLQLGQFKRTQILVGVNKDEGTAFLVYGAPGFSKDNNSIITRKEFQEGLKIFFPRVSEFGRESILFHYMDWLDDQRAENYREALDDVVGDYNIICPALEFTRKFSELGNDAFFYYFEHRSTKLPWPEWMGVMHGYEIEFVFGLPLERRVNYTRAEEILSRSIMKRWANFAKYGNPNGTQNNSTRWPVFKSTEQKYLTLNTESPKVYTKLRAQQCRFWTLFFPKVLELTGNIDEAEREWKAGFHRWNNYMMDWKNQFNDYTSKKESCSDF
T2 sequence (P22303 32-617 isoform P22303-2 limits assumed): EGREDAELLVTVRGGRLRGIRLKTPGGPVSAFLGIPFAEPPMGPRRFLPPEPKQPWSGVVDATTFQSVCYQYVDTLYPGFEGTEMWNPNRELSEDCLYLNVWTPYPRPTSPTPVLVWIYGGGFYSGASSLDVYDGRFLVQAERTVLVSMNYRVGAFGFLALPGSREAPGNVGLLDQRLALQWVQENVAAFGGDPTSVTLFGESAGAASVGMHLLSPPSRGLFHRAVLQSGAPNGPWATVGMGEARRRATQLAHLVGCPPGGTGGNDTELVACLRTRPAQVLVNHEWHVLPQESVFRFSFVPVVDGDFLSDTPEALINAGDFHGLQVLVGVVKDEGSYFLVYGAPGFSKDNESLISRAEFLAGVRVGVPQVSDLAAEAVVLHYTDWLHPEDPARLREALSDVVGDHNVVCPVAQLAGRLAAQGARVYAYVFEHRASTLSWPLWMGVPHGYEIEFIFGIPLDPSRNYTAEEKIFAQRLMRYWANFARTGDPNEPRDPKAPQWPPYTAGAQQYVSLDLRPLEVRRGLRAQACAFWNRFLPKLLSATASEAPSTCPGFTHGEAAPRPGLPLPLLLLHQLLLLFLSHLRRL
T1 sequence (O42275 24-633): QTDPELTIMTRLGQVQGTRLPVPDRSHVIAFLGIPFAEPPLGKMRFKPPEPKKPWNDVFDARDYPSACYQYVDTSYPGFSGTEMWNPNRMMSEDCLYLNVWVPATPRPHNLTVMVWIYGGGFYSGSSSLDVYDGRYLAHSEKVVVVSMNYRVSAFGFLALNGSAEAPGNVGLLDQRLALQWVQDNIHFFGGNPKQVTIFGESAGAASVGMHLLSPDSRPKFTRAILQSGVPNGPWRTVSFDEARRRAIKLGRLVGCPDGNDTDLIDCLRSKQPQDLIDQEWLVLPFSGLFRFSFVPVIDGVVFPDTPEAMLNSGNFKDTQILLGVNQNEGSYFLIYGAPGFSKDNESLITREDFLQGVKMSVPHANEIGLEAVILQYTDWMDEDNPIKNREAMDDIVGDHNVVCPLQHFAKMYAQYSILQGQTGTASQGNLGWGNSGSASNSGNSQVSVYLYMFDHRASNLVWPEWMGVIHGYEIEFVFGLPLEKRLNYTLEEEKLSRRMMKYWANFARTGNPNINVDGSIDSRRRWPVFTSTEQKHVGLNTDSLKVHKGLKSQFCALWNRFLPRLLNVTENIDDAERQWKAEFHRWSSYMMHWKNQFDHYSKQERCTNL

## CC1CCc2c(c3cc(OC(F)(F)F)ccc3n2CCC(=O)N2c3ccc(N(C)C)cc3Sc3cc(N(C)C)ccc32)C1 (centres unmarked) [Compound 4i]
EeAChE PAS; [2]
  inhibition at 3 µM: 20.4 ± 1.8%
EeAChE PAS; [3]
  inhibition at 20 µM: 32.5 ± 0.5%
[1]
  Effect on calcium-induced mitochondrial depolarization at 30 μM: completely suppress
  ΔΨm, CI (g/m): 6 ± 3%
  ΔΨm, CII (s/r): 18 ± 2%
Human erythrocyte AChE
  IC50: 1.94 ± 0.09 µM
Equine serum BChE
  IC50: 6.07 ± 0.58 µM
Porcine liver CES
  CES inhibition at 20 µM: 3.5 ± 0.4%

## COc1ccc2c(c1)c1c(n2CCC(=O)N2c3ccc(N(C)C)cc3Sc3cc(N(C)C)ccc32)CCC(C)C1 (centres unmarked) [Compound 4e]
EeAChE PAS; [2]
  inhibition at 3 µM: 14.8 ± 0.7%
EeAChE PAS; [3]
  inhibition at 20 µM: 23 ± 1.3%
[1]
  ΔΨm, CI (g/m): 33 ± 1%
  ΔΨm, CII (s/r): 50 ± 1%
Human erythrocyte AChE
  IC50: 9.81 ± 0.18 µM
Equine serum BChE; 20 µM, ± SEM
  inhibition at 20 µM: 22.9 ± 2%
Porcine liver CES
  CES inhibition at 20 µM: 15.0 ± 1.3%

## CN(C)c1ccc2c(c1)Sc1cc(N(C)C)ccc1N2C(=O)CCn1c2c(c3ccccc31)CCCCC2 [Compound 4j]
EeAChE PAS; [2]
  inhibition at 3 µM: 10.3 ± 0.9%
EeAChE PAS; [3]
  inhibition at 20 µM: 23.8 ± 1.1%
[1]
  ΔΨm, CI (g/m): 21 ± 9%
  ΔΨm, CII (s/r): 66 ± 1%
Human erythrocyte AChE
  IC50: 10.7 ± 0.67 µM
Equine serum BChE
  IC50: 9.98 ± 0.86 µM
Porcine liver CES
  CES inhibition at 20 µM: 11.3 ± 1.2%

## CN(C)c1ccc2c(c1)Sc1cc(N(C)C)ccc1N2C(=O)CCn1c2c(c3cc(F)ccc31)CCCC2 [Compound 4f]
EeAChE PAS; [2]
  inhibition at 3 µM: 14.4 ± 0.8%
EeAChE PAS; [3]
  inhibition at 20 µM: 31.9 ± 1.4%
[1]
  ΔΨm, CI (g/m): 27 ± 1%
  ΔΨm, CII (s/r): 47 ± 1%
Human erythrocyte AChE
  IC50: 6.57 ± 0.57 µM
Equine serum BChE
  IC50: 18.4 ± 1.52 µM
Porcine liver CES
  CES inhibition at 20 µM: 6.6 ± 0.7%

## COc1ccc2c(c1)c1c(n2CCC(=O)N2c3ccc(N(C)C)cc3Sc3cc(N(C)C)ccc32)CCCC1 [Compound 4d]
EeAChE PAS; [2]
  inhibition at 3 µM: 13.4 ± 0.9%
EeAChE PAS; [3]
  inhibition at 20 µM: 28 ± 1.5%
[1]
  ΔΨm, CI (g/m): 30 ± 4%
  ΔΨm, CII (s/r): 53 ± 1%
Human erythrocyte AChE
  IC50: 10.5 ± 0.89 µM
Equine serum BChE
  IC50: 52.1 ± 2.7 µM
Porcine liver CES
  CES inhibition at 20 µM: 17.3 ± 1.5%

## Cc1ccc2c(c1)c1c(n2CCC(=O)N2c3ccc(N(C)C)cc3Sc3cc(N(C)C)ccc32)CCCCCC1 [Compound 4n]
EeAChE PAS; [2]
  inhibition at 3 µM: 16.7 ± 1.2%
EeAChE PAS; [3]
  inhibition at 20 µM: 28.3 ± 1.2%
[1]
  ΔΨm, CI (g/m): 23 ± 6%
  ΔΨm, CII (s/r): 65 ± 1%
Human erythrocyte AChE
  IC50: 6.26 ± 0.01 µM
Equine serum BChE
  IC50: 15.6 ± 1.13 µM
Porcine liver CES
  CES inhibition at 20 µM: 33.1 ± 3.1%

## CN(C)c1ccc2c(c1)Sc1cc(N(C)C)ccc1N2C(=O)CCn1c2c(c3ccccc31)CCC2 [Compound 4a]
EeAChE PAS; [2]
  inhibition at 3 µM: 12 ± 0.5%
EeAChE PAS; [3]
  inhibition at 20 µM: 20.9 ± 0.8%
[1]
  ΔΨm, CI (g/m): 8 ± 1%
  ΔΨm, CII (s/r): 58 ± 1%
Human erythrocyte AChE
  IC50: 11.1 ± 0.69 µM
Equine serum BChE
  IC50: 42.13 ± 0.41 µM
Porcine liver CES
  CES inhibition at 20 µM: 19.4 ± 1.8%

## CN(C)c1ccc2c(c1)Sc1cc(N(C)C)ccc1N2C(=O)CCn1c2c(c3cc(OC(F)(F)F)ccc31)CCCC2 [Compound 4h]
EeAChE PAS; [2]
  inhibition at 3 µM: 19.1 ± 1.1%
EeAChE PAS; [3]
  inhibition at 20 µM: 33.8 ± 0.4%
[1]
  Effect on calcium-induced mitochondrial depolarization at 30 μM: considerably decrease
  ΔΨm, CI (g/m): 15 ± 2%
  ΔΨm, CII (s/r): 25 ± 1%
Human erythrocyte AChE
  IC50: 6.89 ± 0.09 µM
Equine serum BChE
  IC50: 47.6 ± 4.59 µM
Porcine liver CES
  CES inhibition at 20 µM: 3.1 ± 0.5%

## CN(C)c1ccc2c(c1)Sc1cc(N(C)C)ccc1N2C(=O)CCn1c2c(c3ccccc31)CCCC2 [Compound 4b]
EeAChE PAS; [2]
  inhibition at 3 µM: 12.6 ± 0.7%
EeAChE PAS; [3]
  inhibition at 20 µM: 27.9 ± 1.1%
[1]
  ΔΨm, CI (g/m): 20 ± 1%
  ΔΨm, CII (s/r): 42 ± 2%
Human erythrocyte AChE
  IC50: 12.3 ± 1.51 µM
Equine serum BChE
  IC50: 48.7 ± 2.09 µM
Porcine liver CES
  CES inhibition at 20 µM: 22.6 ± 2.1%

## Cc1ccc2c(c1)c1c(n2CCC(=O)N2c3ccc(N(C)C)cc3Sc3cc(N(C)C)ccc32)CCCC1 [Compound 4c]
EeAChE PAS; [2]
  inhibition at 3 µM: 14.9 ± 1.1%
EeAChE PAS; [3]
  inhibition at 20 µM: 31.8 ± 0.9%
[1]
  ΔΨm, CI (g/m): 29 ± 1%
  ΔΨm, CII (s/r): 50 ± 3%
Human erythrocyte AChE
  IC50: 4.39 ± 0.26 µM
Equine serum BChE
  IC50: 41.4 ± 1.71 µM
Porcine liver CES
  CES inhibition at 20 µM: 14.9 ± 1.3%

## CN(C)c1ccc2c(c1)Sc1cc(N(C)C)ccc1N2 [MBH2, reference compound]
EeAChE PAS; [2]
  PI Displacement, 3 µM: 17.7 ± 1.8%
EeAChE PAS; [3]
  PI Displacement, 20 µM: 36.9 ± 3.3%
[1]
  ΔΨm, CI (g/m): 0%
  ΔΨm, CII (s/r): 18.2 ± 1.1%
Human erythrocyte AChE
  IC50: 1.76 ± 0.09 µM
Equine serum BChE
  IC50: 10.1 ± 0.16 µM
Porcine liver CES
  CES inhibition at 20 µM: 17.2 ± 1.8%

## CN(C)c1ccc2nc3ccc(=[N+](C)C)cc-3sc2c1 [MB, Methylene blue, reference compound]
EeAChE PAS
  inhibition at 3 µM: 20.9 ± 1.9%
  inhibition at 20 µM: 40.8 ± 3.7%
[1]
  Effect on calcium-induced mitochondrial depolarization at 30 μM: completely suppress
  ΔΨm, CI (g/m): 14 ± 7%
  ΔΨm, CII (s/r): 40 ± 9%
Equine serum BChE
  IC50: 11.1 ± 0.12 µM
Porcine liver CES
  CES inhibition at 20 µM: 12.3 ± 1.5%
